Test results reported in US20150338330A1, “Method for Comprehensive Assessment of Platelet Aggregation” (FUJIMORI KOGYO CO., LTD.,, priority 2012, published 2015).

Tests used:
Type in all cases: cell-based
platelets [1] = experiment: Filter back-pressure measurement of platelet aggregation, ADP reagent (final 5.6 μM), citrated blood; parameters: area under the curve of the pressure waveform: unit not given beside the values; details: for area under the curve of the pressure waveform: 60 μl/minute, 5 minutes
Experimental: (§1) The apparatus in FIG. 1 was prepared for use in the following experiments.
(§2) As the container 1 (blood reservoir), a cylindrical acrylic container having a capacity of 450 μl (inner diameter, 6 mm; depth, 16 mm) was used.
(§3) As the filter, a circular nickel micromesh filter having 30 μm×30 μm square openings (pitch size, 45 μm) and a diameter of 1 mm, placed at the center of the filter section was used.
To the blood reservoir, 13 μl of […] ADP reagent (Dynabite GmbH, Germany) (final concentration, 5.6 μM) was added, and 450 μl of blood collected in a Terumo blood collection tube (Venoject, containing 3.13% sodium citrate) was added thereto. The resulting mixture was mixed in the blood reservoir, and the filter device was connected to the blood reservoir. One minute after the mixing of the blood with the ADP reagent, mineral oil was injected into the blood reservoir at a flow rate of 60 μl/minute to inject the blood into the filter device.
The back pressure exerted on the mineral oil was continuously monitored for 5 minutes at intervals of 1 second using the pressure sensor. In addition, the same measurement was carried out for blood to which AR-C66096 (platelet P2Y12 receptor inhibitor; Tocris Bioscience, UK) was added to a final concentration of 25, 50, 100, or 250 nM.

platelets [2] = experiment: Multiplate impedance-based whole blood platelet aggregation, ADP (final 6.5 μM); details: ADP 6.5 μM
Experimental: To provide controls, whole blood platelet aggregation was similarly measured for blood to which AR-C66096 was added to a final concentration of 25, 50, 100, or 250 nM, using Multiplate (impedance-based platelet aggregability analyzer, Dynabite GmbH). As the platelet-activating reagent, ADP (final concentration, 6.5 μM) was used. […] That is, in the absence of a physical load by blood flow or the like, platelet aggregates that have once adhered/aggregated to the electrode were maintained without breakdown, leading to the increase in the electric resistance.

platelets [3] = experiment: Multiplate impedance-based whole blood platelet aggregation, collagen (final 3.2 μg/ml); details: aspirin 100 μM; collagen 3.2 μg/ml
Experimental: To provide controls, whole blood platelet aggregation was similarly measured for blood to which aspirin was added to a final concentration of 100 μM, and blood to which both 50 μM aspirin and 250 μM AR-C66096 were added, using Multiplate (impedance-based platelet aggregability analyzer, Dynabite GmbH). As the platelet-activating reagent, collagen (final concentration, 3.2 μg/ml) was used.

platelets [4] = experiment: Filter back-pressure measurement of platelet aggregation, collagen reagent (final 0.7 μg/ml), citrated blood; details: aspirin 100 μM; collagen 0.7 μg/ml
Experimental: (§4) The apparatus in FIG. 1 was prepared for use in the following experiments. As the container 1 (blood reservoir), a cylindrical acrylic container having a capacity of 450 μl (inner diameter, 6 mm; depth, 16 mm) was used. As the filter, a circular nickel micromesh filter having 30 μm×30 μm square openings (pitch size, 45 μm) and a diameter of 1 mm, placed at the center of the filter section was used. To the blood reservoir, 13 μl of 25 μg/ml (final concentration, 0.7 μg/ml) collagen reagent (manufactured by Dynabite GmbH) was added, and 450 μl of blood collected in a Terumo blood collection tube (Venoject, containing 3.13% sodium citrate) was added thereto. After mixing the resulting mixture, the filter device was connected to the blood reservoir. One minute after the mixing of the blood with the collagen reagent, mineral oil was injected into the blood reservoir at a flow rate of 60 μl/minute to inject the blood into the filter device. The back pressure exerted on the mineral oil was continuously monitored for 5 minutes at intervals of 1 second using the pressure sensor. In addition, the same measurement was carried out for blood to which aspirin was added to a final concentration of 100 μM, or blood to which both 50 μM aspirin and 250 μM AR-C66096 were added.

platelets [5] = experiment: Filter back-pressure measurement of platelet aggregation, PAR1-activating reagent (SFLLRN), citrated blood; details: aspirin 100 μM
Experimental: as §4, with “reservoir, 20” for “reservoir, 13”, “of 1 mM PAR1-activating” for “of 25 μg/ml (final concentration, 0.7 μg/ml) collagen”, “reagent (peptide sequence, […]; manufactured” for “reagent (manufactured”, “reservoir. […]” for “reservoir. One minute after the mixing of the blood with the collagen reagent, mineral oil was injected into the blood reservoir at a flow rate of 60 μl/minute to inject the blood into the filter device.”, “sensor. The” for “sensor. In addition, the”, “100 μM.” for “100 μM, or blood to which both 50 μM aspirin and 250 μM AR-C66096 were added.”

platelets [6] = experiment: Filter back-pressure measurement of platelet aggregation, arachidonic acid (6.25 mM or 10 mM), citrated blood
Experimental: as §1, §2, §3
To the blood reservoir, 30 or 50 μl (final concentration, 6.25 mM or 10 mM, respectively) of 100 mM arachidonic acid (manufactured by Dynabite GmbH) was added, and 450 μl of blood collected in a Terumo blood collection tube (Venoject, containing 3.13% sodium citrate) was added thereto. After mixing the resulting mixture, the filter device was connected to the blood reservoir. One minute after the mixing of the blood with the collagen reagent, mineral oil was injected into the blood reservoir at a flow rate of 60 μl/minute to inject the blood into the filter device.
The back pressure exerted on the mineral oil was continuously monitored for 5 minutes at intervals of 1 second using the pressure sensor. In addition, the same measurement was carried out for a mixture prepared by mixing 50 μl of an arachidonic acid reagent with blood to which aspirin was added to a final concentration of 100 μM.

platelets [7] = experiment: Filter back-pressure measurement of platelet aggregation, PAR4-activating reagent (AYPGKF), citrated blood; details: aspirin 100 μM
Experimental: as §4, with “reservoir, 20” for “reservoir, 13”, “of 20 mM PAR4-activating” for “of 25 μg/ml (final concentration, 0.7 μg/ml) collagen”, “reagent (peptide sequence, AYPGKF; manufactured” for “reagent (manufactured”, “sensor. The” for “sensor. In addition, the”, “100 μM.” for “100 μM, or blood to which both 50 μM aspirin and 250 μM AR-C66096 were added.”

platelets [8] = experiment: Filter back-pressure measurement, collagen reagent (final 1.4 μg/ml), repeated 5 times; details: collagen final 1.4 μg/ml; 5 times of measurement; no inhibitor
Experimental: as §1, §2, §3
To the blood reservoir, 13 μl of 50 μg/ml (final concentration, 1.4 μg/ml) collagen reagent (manufactured by Dynabite GmbH) was added, and 450 μl of blood collected in a Terumo blood collection tube (Venoject, containing 3.13% sodium citrate) was added thereto. After mixing the resulting mixture, the filter device was connected to the blood reservoir. One minute after the mixing of the blood with the collagen reagent, mineral oil was injected into the blood reservoir at a flow rate of 60 μl/minute to inject the blood into the filter device.
The back pressure exerted on the mineral oil was continuously monitored for 5 minutes at intervals of 1 second using the pressure sensor. The measurement was repeated 5 times.

[9] = AR-C66096 25-250 nM, ADP 5.6 μM

CCCSc1nc(N)c2ncn([C@@H]3O[C@H](COP(=O)(O)OP(=O)(O)C(F)(F)P(=O)(O)O)[C@@H](O)[C@H]3O)c2n1 [AR-C66096]
area under the curve of the pressure waveform (platelets [1]; AR-C66096 25 nM, ADP 5.6 μM): 11.75
stability and persistence of platelet aggregates (platelets [1]; AR-C66096 50 nM or 100 nM, arch-shaped pressure curves): suppressed
area under the curve of the pressure waveform (platelets [1]; AR-C66096 50 nM, ADP 5.6 μM): 8.7
area under the curve of the pressure waveform (platelets [1]; AR-C66096 100 nM, ADP 5.6 μM): 8.05
area under the curve of the pressure waveform (platelets [1]; AR-C66096 250 nM, ADP 5.6 μM): 7.95
beginning of the pressure increase (platelets [1]; [9]): delayed
pressure increase (platelets [1]; [9]): suppressed the pressure increase in a concentration-dependent manner
AUC (Multiplate impedance) (platelets [2]; AR-C66096 25 nM): 23
AUC (Multiplate impedance) (platelets [2]; AR-C66096 50 nM): 19
AUC (Multiplate impedance) (platelets [2]; AR-C66096 100 nM): 15
AUC (Multiplate impedance) (platelets [2]; AR-C66096 250 nM): 17
concentration dependence of AUC (Multiplate) (platelets [2]; AR-C66096 25-250 nM): no concentration dependence was found

CC(=O)Oc1ccccc1C(=O)O [aspirin]
AUC of the electric resistance (Multiplate) (platelets [3]): 28
effect on Multiplate aggregation (platelets [3]): an effect of aspirin could be found
beginning of the pressure increase (platelets [4]): delayed
pressure increase (platelets [4]): suppressed
aggregation waveform obtained by the PAR1-activating peptide (platelets [5]): not inhibited
pressure increase (platelets [6]; aspirin 100 μM, 50 μl arachidonic acid reagent (10 mM)): suppressed
aggregation waveform obtained by the PAR4-activating peptide (platelets [7]): not inhibited

CCCCC/C=C\C/C=C\C/C=C\C/C=C\CCCC(=O)O [arachidonic acid]
platelet activation / pressure (platelets [6]; arachidonic acid 6.25 mM or 10 mM): activated platelets to increase the pressure

collagen
area under the curve of the pressure waveform (mean±SD) (platelets [8]): 15.11±0.8
